Measured values as given in US20260262643A1, “HERBICIDAL BENZOXAZINES” (FMC CORPORATION, priority 2022, published 2026).

Assays:
foxtail, giant [1] = assay: Test C preemergence; type: in vivo, Setaria faberi
Procedure, shortened: (§1)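 Pre: seeds in loam/sand, directed soil spray. Post: 1–2 leaf plants, 2–10 cm. Cmpd in non-phytotoxic solvent + surfactant. Greenhouse 10 d; visual rating vs untreated, 0 = none, 100 = complete control.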

horseweed = assay: Test C postemergence; type: in vivo, Erigeron canadensis; conditions: 10 days, 0 to 100 scale (0 no effect, 100 complete control)
Procedure, shortened: as §1

ragweed [2] = assay: Test C preemergence; type: in vivo, Ambrosia artemisiifolia
Procedure, shortened: as §1

soybean [3] = assay: Test C postemergence; type: in vivo, Glycine max; conditions: 10 days, 0 to 100 scale (0 no effect, 100 complete control)
Procedure, shortened: as §1

wheat [4] = assay: Test C postemergence; type: in vivo, Triticum aestivum; conditions: 10 days, 0 to 100 scale (0 no effect, 100 complete control)
Procedure, shortened: as §1

barnyardgrass [5] = assay: Test C preemergence; type: in vivo, Echinochloa crusgalli
Procedure, shortened: as §1

pigweed, palmer [6] = assay: Test C postemergence; type: in vivo, Amaranthus palmeri; conditions: 10 days, 0 to 100 scale (0 no effect, 100 complete control)
Procedure, shortened: as §1

corn [7] = assay: Test C preemergence; type: in vivo, Zea mays; conditions: Preemergence, 125 g ai/ha; 0 to 100 scale, 0 no effect, 100 complete control
Procedure, shortened: as §1

foxtail, giant [8] = assay: Test C postemergence; type: in vivo, Setaria faberi; conditions: 10 days, 0 to 100 scale (0 no effect, 100 complete control)
Procedure, shortened: as §1

corn [9] = assay: Test C postemergence; type: in vivo, Zea mays; conditions: 10 days, 0 to 100 scale (0 no effect, 100 complete control)
Procedure, shortened: as §1

galium = assay: Test C postemergence; type: in vivo, Galium aparine; conditions: 10 days, 0 to 100 scale (0 no effect, 100 complete control)
Procedure, shortened: as §1

ragweed [10] = assay: Test C postemergence; type: in vivo, Ambrosia artemisiifolia; conditions: 10 days, 0 to 100 scale (0 no effect, 100 complete control)
Procedure, shortened: as §1

kochia [11] = assay: Test C preemergence; type: in vivo, Bassia scoparia
Procedure, shortened: as §1

barnyardgrass [12] = assay: Test D flooded paddy test; type: in vivo, Echinochloa crus-galli; conditions: 250 g ai/ha, applied to paddy water, visual rating after 13 to 14 days, scale 0 to 100 (0 no effect, 100 complete control)
Procedure, shortened: (§2)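 Seedlings reached the 2-leaf stage, then pots were flooded to 3 cm over the soil surface. Compound was applied into the water, depth was maintained, and plants stayed in the greenhouse 13 to 14 days before visual scoring (0–100) relative to controls.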

ducksalad = assay: Test D flooded paddy test; type: in vivo, Heteranthera limosa; conditions: 250 g ai/ha, applied to paddy water, visual rating after 13 to 14 days, scale 0 to 100 (0 no effect, 100 complete control)
Procedure, shortened: as §2

soybean [13] = assay: Test C preemergence; type: in vivo, Glycine max
Procedure, shortened: as §1

ryegrass, Italian [14] = assay: Test C preemergence; type: in vivo, Lolium multiflorum
Procedure, shortened: as §1

sedge, umbrella = assay: Test D flooded paddy test; type: in vivo, Cyperus difformis; conditions: 250 g ai/ha, applied to paddy water, visual rating after 13 to 14 days, scale 0 to 100 (0 no effect, 100 complete control)
Procedure, shortened: as §2

oat, wild [15] = assay: Test C postemergence; type: in vivo, Avena fatua; conditions: 10 days, 0 to 100 scale (0 no effect, 100 complete control)
Procedure, shortened: as §1

blackgrass [16] = assay: Test C postemergence; type: in vivo, Alopecurus myosuroides; conditions: 10 days, 0 to 100 scale (0 no effect, 100 complete control)
Procedure, shortened: as §1

ryegrass, Italian [17] = assay: Test C postemergence; type: in vivo, Lolium multiflorum; conditions: 10 days, 0 to 100 scale (0 no effect, 100 complete control)
Procedure, shortened: as §1

pigweed, palmer [18] = assay: Test C preemergence; type: in vivo, Amaranthus palmeri
Procedure, shortened: as §1

kochia [19] = assay: Test C postemergence; type: in vivo, Bassia scoparia; conditions: 10 days, 0 to 100 scale (0 no effect, 100 complete control)
Procedure, shortened: as §1

blackgrass [20] = assay: Test C preemergence; type: in vivo, Alopecurus myosuroides
Procedure, shortened: as §1

oat, wild [21] = assay: Test C preemergence; type: in vivo, Avena fatua
Procedure, shortened: as §1

rice = assay: Test D flooded paddy test; type: in vivo, Oryza sativa; conditions: 250 g ai/ha, applied to paddy water, visual rating after 13 to 14 days, scale 0 to 100 (0 no effect, 100 complete control)
Procedure, shortened: as §2

wheat [22] = assay: Test C preemergence; type: in vivo, Triticum aestivum
Procedure, shortened: as §1

barnyardgrass [23] = assay: Test C postemergence; type: in vivo, Echinochloa crusgalli; conditions: 10 days, 0 to 100 scale (0 no effect, 100 complete control)
Procedure, shortened: as §1

[24] = 500 g ai/ha, preemergence, 0 to 100 scale (0 no effect, 100 complete control)
[25] = Preemergence, 125 g ai/ha, 0 to 100 scale, 0 no effect, 100 complete control

COc1ccc(-n2cnc(C3CC3)n2)cc1C(=O)N1C[C@H](C)Oc2c(Cl)cccc21 [Compound 324]
Foxtail, Giant plant response rating (foxtail, giant [1]; [24]): 100 | Plant response rating, Foxtail, Giant (foxtail, giant [1]; [25]): 90 | Plant response rating, Horseweed (horseweed; 500 g ai/ha, postemergence): 80 | Plant response rating, Horseweed (horseweed; Postemergence, 125 g ai/ha): 60 | Ragweed plant response rating (ragweed [2]; [24]): 90 | Plant response rating, Ragweed (ragweed [2]; [25]): 50 | Plant response rating, Soybean (soybean [3]; 500 g ai/ha, postemergence): 100 | Plant response rating, Soybean (soybean [3]; Postemergence, 125 g ai/ha): 100 | Plant response rating, Wheat (wheat [4]; 500 g ai/ha, postemergence): 30 | Plant response rating, Wheat (wheat [4]; Postemergence, 125 g ai/ha): 30 | Barnyardgrass plant response rating (barnyardgrass [5]; [24]): 100 | Plant response rating, Barnyardgrass (barnyardgrass [5]; [25]): 90 | Plant response rating, Pigweed, Palmer (pigweed, palmer [6]; 500 g ai/ha, postemergence): 100 | Plant response rating, Pigweed, Palmer (pigweed, palmer [6]; Postemergence, 125 g ai/ha): 90 | Plant response rating, Corn (corn [7]): 0 | Plant response rating, Foxtail, Giant (foxtail, giant [8]; 500 g ai/ha, postemergence): 90 | Plant response rating, Foxtail, Giant (foxtail, giant [8]; Postemergence, 125 g ai/ha): 80 | Plant response rating, Corn (corn [9]; 500 g ai/ha, postemergence): 90 | Plant response rating, Corn (corn [9]; Postemergence, 125 g ai/ha): 70 | Plant response rating, Galium (galium; 500 g ai/ha, postemergence): 100 | Plant response rating, Galium (galium; Postemergence, 125 g ai/ha): 100 | Plant response rating, Ragweed (ragweed [10]; 500 g ai/ha, postemergence): 70 | Plant response rating, Ragweed (ragweed [10]; Postemergence, 125 g ai/ha): 60 | Kochia plant response rating (kochia [11]; [24]): 90 | Plant response rating, Kochia (kochia [11]; [25]): 90 | Plant response rating, Barnyardgrass (Flood) (barnyardgrass [12]): 40 | Plant response rating, Ducksalad (Flood) (ducksalad): 80 | Soybean plant response rating (soybean [13]; [24]): 90 | Plant response rating, Soybean (soybean [13]; [25]): 100 | Ryegrass, Italian plant response rating (ryegrass, Italian [14]; [24]): 100 | Plant response rating, Ryegrass, Italian (ryegrass, Italian [14]; [25]): 80 | Plant response rating, Sedge, Umbrella (Flood) (sedge, umbrella): 98 | Plant response rating, Oat, Wild (oat, wild [15]; 500 g ai/ha, postemergence): 70 | Plant response rating, Oat, Wild (oat, wild [15]; Postemergence, 125 g ai/ha): 10 | Plant response rating, Blackgrass (blackgrass [16]; 500 g ai/ha, postemergence): 90 | Plant response rating, Blackgrass (blackgrass [16]; Postemergence, 125 g ai/ha): 90 | Plant response rating, Ryegrass, Italian (ryegrass, Italian [17]; 500 g ai/ha, postemergence): 50 | Plant response rating, Ryegrass, Italian (ryegrass, Italian [17]; Postemergence, 125 g ai/ha): 40 | Pigweed, Palmer plant response rating (pigweed, palmer [18]; [24]): 100 | Plant response rating, Pigweed, Palmer (pigweed, palmer [18]; [25]): 100 | Plant response rating, Kochia (kochia [19]; 500 g ai/ha, postemergence): 100 | Plant response rating, Kochia (kochia [19]; Postemergence, 125 g ai/ha): 90 | Blackgrass plant response rating (blackgrass [20]; [24]): 90 | Plant response rating, Blackgrass (blackgrass [20]; [25]): 70 | Oat, Wild plant response rating (oat, wild [21]; [24]): 90 | Plant response rating, Oat, Wild (oat, wild [21]; [25]): 0 | Plant response rating, Rice (Flood) (rice): 10 | Wheat plant response rating (wheat [22]; [24]): 90 | Plant response rating, Wheat (wheat [22]; [25]): 10 | Plant response rating, Barnyardgrass (barnyardgrass [23]; 500 g ai/ha, postemergence): 80 | Plant response rating, Barnyardgrass (barnyardgrass [23]; Postemergence, 125 g ai/ha): 50
